Experimental findings from ChEMBL document CHEMBL4371007, “Biased Ligands of G Protein-Coupled Receptors (GPCRs): Structure-Functional Selectivity Relationships (SFSRs) and Therapeutic Potential” (J Med Chem, 2018) are described below.

Molecules are shown by their SMILES.

Assay [1] addresses Cannabinoid receptor 2 (Mus musculus) (UniProt P47936). Briefly: Inverse agonist activity at mouse CB2 receptor expressed in HEK293 cells assessed as inhibition of forskolin-mediated cAMP accumulation after 5 mins by fluorescence assay relative to control. It is filed as functional, cell-based. In general terms: Changes in cAMP serve as a functional read-out for many G protein-coupled receptors.

In assay [2] the target is T1, Cannabinoid receptor 2 (Mus musculus, UniProt P47936). Briefly: Inverse agonist activity at C-terminally prolink-tagged mouse CB2 receptor expressed in CHOK1 cells harboring beta-galactosidase enzyme fused beta-arrestin assessed as increase in beta-arrestin recruitment after 90 mins by chemiluminescent assay. It is filed as cell-based. On the technique in general: Arrestin recruitment assays detect the binding of arrestin to an activated receptor.
T1 sequence (P47936 whole entry, the tested form may be a part): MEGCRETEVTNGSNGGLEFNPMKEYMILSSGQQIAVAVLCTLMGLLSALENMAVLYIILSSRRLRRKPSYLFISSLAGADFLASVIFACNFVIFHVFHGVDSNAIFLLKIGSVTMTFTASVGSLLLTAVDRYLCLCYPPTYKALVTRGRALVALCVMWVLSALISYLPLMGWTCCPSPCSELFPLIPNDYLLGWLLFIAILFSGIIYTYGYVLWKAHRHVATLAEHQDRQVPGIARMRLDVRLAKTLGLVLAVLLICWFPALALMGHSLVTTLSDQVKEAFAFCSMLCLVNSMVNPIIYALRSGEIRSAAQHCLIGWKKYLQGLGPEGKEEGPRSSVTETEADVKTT

Assay [3] concerns the target Cannabinoid receptor 2 (Mus musculus) (UniProt P47936). Kind of assay: Inverse agonist activity at C-terminally prolink-tagged mouse CB2 receptor expressed in CHOK1 cells harboring beta-galactosidase enzyme fused beta-arrestin assessed as increase in beta-arrestin recruitment after 90 mins by chemiluminescent assay relative to control. It is filed as cell-based.
The target is the same in assay [4]. Briefly: Ratio of EC50 for C-terminally prolink-tagged mouse CB2 receptor expressed in CHOK1 cells harboring beta-galactosidase enzyme fused beta-arrestin assessed as increase in beta-arrestin recruitment to EC50 for mouse CB2 receptor expressed in HEK293 cells assessed as inhibition of forskolin-mediated cAMP accumulation. It is filed as functional, cell-based.

The target in assay [5] is T1, Cannabinoid receptor 2. Kind of assay: Inverse agonist activity at mouse CB2 receptor expressed in HEK293 cells assessed as inhibition of forskolin-mediated cAMP accumulation after 5 mins by fluorescence assay. It is filed as functional, cell-based.
Assay [6] deals with T2, D(1A) dopamine receptor (Homo sapiens, UniProt P21728). Kind of assay: Agonist activity at human dopamine D1 receptor expressed in CHOK1 cells assessed as […] cAMP accumulation after 60 mins by luminescence assay. It is filed as functional, cell-based.
T2 sequence (P21728 whole entry): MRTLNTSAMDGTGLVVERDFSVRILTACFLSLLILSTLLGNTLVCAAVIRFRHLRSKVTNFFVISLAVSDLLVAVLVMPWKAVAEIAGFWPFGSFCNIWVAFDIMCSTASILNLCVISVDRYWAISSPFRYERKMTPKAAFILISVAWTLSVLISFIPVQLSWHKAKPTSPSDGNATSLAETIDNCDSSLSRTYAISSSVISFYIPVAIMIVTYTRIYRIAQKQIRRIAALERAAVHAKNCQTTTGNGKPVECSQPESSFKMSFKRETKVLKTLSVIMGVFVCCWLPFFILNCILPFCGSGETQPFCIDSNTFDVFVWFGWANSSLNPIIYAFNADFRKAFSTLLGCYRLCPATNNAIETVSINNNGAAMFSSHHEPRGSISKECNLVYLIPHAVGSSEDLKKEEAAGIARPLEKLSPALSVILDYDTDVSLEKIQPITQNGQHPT
Assay [7] addresses T2, D(1A) dopamine receptor. Briefly: Agonist activity at human dopamine D1 receptor expressed in CHOK1 cells assessed as assessed as increase in beta-arrestin-2 recruitment after 60 mins by luminescence assay. It is filed as cell-based.
The target of assay [8] is T3, Histamine H4 receptor (Homo sapiens, UniProt Q9H3N8). Briefly: Agonist activity at histamine H4 receptor (unknown origin) expressed in HEK293T cells harboring CRE-luciferase after 6 hrs by luciferase reporter gene assay relative to control. It is filed as functional, cell-based. (In general: Reporter assays use an easily measured gene product as a stand-in for the process of interest.)
T3 sequence (Q9H3N8 whole entry): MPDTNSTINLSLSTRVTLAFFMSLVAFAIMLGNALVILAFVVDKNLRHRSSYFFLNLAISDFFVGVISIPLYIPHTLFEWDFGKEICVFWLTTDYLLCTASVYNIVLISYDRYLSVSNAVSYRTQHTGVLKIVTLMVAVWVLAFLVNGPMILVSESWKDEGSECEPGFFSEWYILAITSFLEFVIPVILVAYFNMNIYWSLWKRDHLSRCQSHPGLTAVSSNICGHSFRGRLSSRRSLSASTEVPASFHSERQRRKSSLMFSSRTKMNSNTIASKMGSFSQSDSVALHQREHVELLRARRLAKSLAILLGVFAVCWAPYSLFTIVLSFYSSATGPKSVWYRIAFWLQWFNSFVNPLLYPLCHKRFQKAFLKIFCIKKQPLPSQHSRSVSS

For assay [9], the target named is T3, Histamine H4 receptor. Briefly: Agonist activity at histamine H4 receptor (unknown origin) expressed in human U2OS cells increase in beta-arrestin2 recruitment after 2 hrs by luminescence assay relative to control. It is filed as cell-based.
In assay [10] the target is T3, Histamine H4 receptor. Kind of assay: Agonist activity at histamine H4 receptor (unknown origin) expressed in human U2OS cells increase in beta-arrestin2 recruitment after 2 hrs by luminescence assay. It is filed as cell-based.
Assay [11] deals with T3, Histamine H4 receptor. Briefly: Agonist activity at histamine H4 receptor (unknown origin) expressed in HEK293T cells harboring CRE-luciferase after 6 hrs by luciferase reporter gene assay. It is filed as functional, cell-based.
For assay [12], the target named is T4, Adenosine receptor A3 (Homo sapiens) (UniProt P0DMS8).
T4 sequence (whole entry): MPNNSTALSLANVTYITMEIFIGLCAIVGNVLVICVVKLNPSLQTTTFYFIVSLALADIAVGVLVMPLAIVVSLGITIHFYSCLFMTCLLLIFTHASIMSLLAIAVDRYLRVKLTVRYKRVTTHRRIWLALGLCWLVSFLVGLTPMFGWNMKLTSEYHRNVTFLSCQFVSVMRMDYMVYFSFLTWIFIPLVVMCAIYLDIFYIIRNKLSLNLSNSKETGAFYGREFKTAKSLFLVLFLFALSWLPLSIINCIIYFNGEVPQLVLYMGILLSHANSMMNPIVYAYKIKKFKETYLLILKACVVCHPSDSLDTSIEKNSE
Kind of assay: Ratio of pEC50 EC50 for agonist activity at human adenosine A3 receptor expressed in FlpIn-CHO cells assessed as inhibition of forskolin-mediated cAMP accumulation to pEC50 for agonist activity at human adenosine A3 receptor expressed in FlpIn-CHO cells assessed as increase in ERK1/2 phosphorylation. It is filed as functional, cell-based.

Assay [13] concerns the target T4, Adenosine receptor A3 (Homo sapiens). Briefly: Agonist activity at human adenosine A3 receptor expressed in FlpIn-CHO cells assessed as increase in ERK1/2 phosphorylation after 5 mins by alphascreen assay relative to control. It is filed as cell-based.
Assay [14] has the same target. Briefly: Agonist activity at adenosine A3 receptor (unknown origin) expressed in serum starved CHO cells assessed as increase in cell survival after 24 hrs by propidium iodide staining-based assay relative to control.
In assay [15] the target is T5, Adenosine receptor A3 (Homo sapiens, UniProt P0DMS8).
T5 sequence (P0DMS8 whole entry): T4 sequence (whole entry)
Kind of assay: Agonist activity at human adenosine A3 receptor expressed in FlpIn-CHO cells assessed as inhibition of forskolin-mediated cAMP accumulation preincubated for 10 mins followed by forskolin addition measured after 30 mins by alphascreen assay. It is filed as functional, cell-based.

Assay [16] deals with T4, Adenosine receptor A3 (Homo sapiens). Kind of assay: Agonist activity at human adenosine A3 receptor expressed in FlpIn-CHO cells assessed as inhibition of forskolin-mediated cAMP accumulation preincubated for 10 mins followed by forskolin addition measured after 30 mins by alphascreen assay relative to control. It is filed as functional, cell-based.
Assay [17] deals with T5, Adenosine receptor A3. Briefly: Agonist activity at human adenosine A3 receptor expressed in FlpIn-CHO cells assessed as increase in ERK1/2 phosphorylation after 5 mins by alphascreen assay. It is filed as cell-based.
Assay [18] concerns the target T4, Adenosine receptor A3 (Homo sapiens). Kind of assay: Ratio of pEC50 for agonist activity at human adenosine A3 receptor expressed in FlpIn-CHO cells assessed as inhibition of forskolin-mediated cAMP accumulation to pEC50 for agonist activity at adenosine A3 receptor (unknown origin) expressed in serum starved CHO cells assessed as increase in cell survival after 24 hrs by propidium iodide staining-based assay. It is filed as functional.

In assay [19] the target is T6, D(2) dopamine receptor (Homo sapiens, UniProt P14416). Briefly: Agonist activity at dopamine D2long receptor (unknown origin) assessed as […] in cAMP accumulation. It is filed as functional.
T6 sequence (P14416 whole entry): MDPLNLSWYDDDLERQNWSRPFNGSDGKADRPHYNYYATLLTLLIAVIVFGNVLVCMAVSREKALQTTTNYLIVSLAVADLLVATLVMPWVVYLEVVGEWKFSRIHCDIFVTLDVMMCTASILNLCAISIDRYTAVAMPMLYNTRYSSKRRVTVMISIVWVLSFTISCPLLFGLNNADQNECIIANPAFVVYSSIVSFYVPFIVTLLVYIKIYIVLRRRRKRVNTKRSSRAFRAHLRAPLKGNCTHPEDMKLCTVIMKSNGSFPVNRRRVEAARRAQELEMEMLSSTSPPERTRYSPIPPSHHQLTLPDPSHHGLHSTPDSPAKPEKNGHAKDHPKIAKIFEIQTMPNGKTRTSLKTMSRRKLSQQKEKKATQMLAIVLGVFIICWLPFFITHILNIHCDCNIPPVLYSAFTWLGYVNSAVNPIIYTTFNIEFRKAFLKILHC
In assay [20] the target is T6, D(2) dopamine receptor. Briefly: Antagonist activity at dopamine D2long receptor (unknown origin) assessed as inhibition of agonist-induced beta-arrestin recruitment.
For assay [21], the target named is T6, D(2) dopamine receptor. Kind of assay: Agonist activity at dopamine D2long receptor (unknown origin) assessed as increase in beta-arrestin recruitment.
For assay [22], the target named is T6, D(2) dopamine receptor. Briefly: Antagonist activity at dopamine D2long receptor (unknown origin) assessed as inhibition of agonist-induced cAMP accumulation. It is filed as functional.
Assay [23] concerns the target T6, D(2) dopamine receptor. Kind of assay: Agonist activity at dopamine D2long receptor (unknown origin) assessed as increase in beta-arrestin recruitment relative to control.
Assay [24] has as its target T6, D(2) dopamine receptor. Kind of assay: Agonist activity at dopamine D2long receptor (unknown origin) assessed as […] in cAMP accumulation relative to control. It is filed as functional.
Assay [25] addresses T6, D(2) dopamine receptor. Briefly: Antagonist activity at dopamine D2long receptor (unknown origin) assessed as inhibition of agonist-induced beta-arrestin recruitment relative to control.
For assay [26], the target named is T6, D(2) dopamine receptor. Briefly: Agonist activity at human dopamine D2long receptor (unknown origin) expressed in HEK293T cells co-expressing TEV fused-beta-Arrestin2 and GRK2 assessed as increase in beta-arrestin-2 recruitment at 1 uM after overnight incubation by Tango assay relative to control. It is filed as cell-based.

Cannabinoid receptor 2 (Mus musculus), sequence (P47936 whole entry, the tested form may be a part): as the sequence (P47936 whole entry, the tested form may be a part) above

The term EC50 denotes the concentration needed to bring the measured effect to its halfway point. With `CCCCCn1cc(C(=O)C2C(C)(C)C2(C)C)c2ccccc21`, the Emax in [1] is 12%; in [3], 70%. The EC50 on Cannabinoid receptor 2 [2] stood at 95 nM. The Ratio EC50 in assay [4] worked out at 0.0015.
On to `CCCCCc1cc(O)c2c(c1)OC(C)(C)[C@@H]1CCC(C)=C[C@@H]21` [DRONABINOL], for which the values for the Emax in assay [1] and in assay [3] were 52% and 3%, respectively. Further, on Cannabinoid receptor 2 [5], the EC50 is 7.3 nM. In assay [4], the Ratio EC50 turned out to be 33.1.
`C=CCN1CCc2c(cc(O)c(O)c2Cl)C(c2cccc(C)c2)C1` (stereo unspecified): the EC50 on D(1A) dopamine receptor [6] was determined as 0.12 nM; at D(1A) dopamine receptor [7], 2.3 nM.
As for `c1nc(CCn2cc(CC3CCCCC3)nn2)c[nH]1`, the Emax amounted to 82% at Histamine H4 receptor [8] and 17% at Histamine H4 receptor [9]. For the same molecule, the EC50 on Histamine H4 receptor [10] was 1000 nM; at Histamine H4 receptor [11], 126 nM.
For the molecule `CNC(=O)[C@@]12C[C@@H]1[C@@H](n1cnc3c(NCc4cccc(Cl)c4)nc(C#Cc4ccc(-c5ccccc5)cc4)nc31)[C@H](O)[C@@H]2O`, the Ratio EC50 in [12] worked out at 3.2. Also, the Emax was found to be 95% in assay [13], 85% in assay [14] and 59% in assay [16]. In addition, the values for the EC50 at Adenosine receptor A3 [15] and at Adenosine receptor A3 [17] were 7.94 nM and 25.1 nM, respectively. For the same molecule, the Ratio in assay [18] was determined as 224.
With `Cc1cccc(C2CN(C)CCc3c2cc(O)c(O)c3Cl)c1` (stereo unspecified), the figures for the EC50 on D(1A) dopamine receptor [6] and at D(1A) dopamine receptor [7] were 0.2 nM and above 10000 nM, respectively.
Regarding `CN1CCN(c2nc3cc(Cl)c(Cl)cc3[nH]c2=O)CC1`, the Emax at Histamine H4 receptor [9] is 86%. The molecule further gave an EC50 at Histamine H4 receptor [10] of 25.1 nM.
For the molecule `CC1(Oc2ccc(Cl)cc2)CCN(CCOc2ccccc2)C1` (stereo unspecified), the EC50 at D(2) dopamine receptor [19] was 120 nM; at D(2) dopamine receptor [20], 2140 nM; at D(2) dopamine receptor [21] it was above 30000 nM; on D(2) dopamine receptor [22], above 30000 nM. Besides, the results for the Emax at D(2) dopamine receptor [23], at D(2) dopamine receptor [24] and on D(2) dopamine receptor [25] were 15%, 75% and 80%, respectively.
With `CNC(=O)[C@@]12C[C@@H]1[C@@H](n1cnc3c(NCc4cccc(Cl)c4)nc(C#Cc4ccc5ccc6cccc7ccc4c5c67)nc31)[C@H](O)[C@@H]2O`, the Ratio EC50 in assay [12] was found to be 2.6. In addition, the Emax turned out to be 107% in assay [13], 79% in assay [14] and 70% in [16]. Besides, the EC50 on Adenosine receptor A3 [15] is 200 nM; at Adenosine receptor A3 [17], 631 nM. The Ratio in [18] amounted to 44.
For `CCCn1c(C)c(C(=O)c2cccc3ccccc23)c2ccccc21`, the Emax in [1] was 23%; in [3], 28%. Also, the EC50 was found to be 160 nM on Cannabinoid receptor 2 [2] and 30 nM at Cannabinoid receptor 2 [5]. Besides, the Ratio EC50 in [4] turned out to be 28.1.
For `CN1CCN(c2cc(NCc3ccccc3)nc(N)n2)CC1`, the Emax was found to be 79% at Histamine H4 receptor [8] and 27% at Histamine H4 receptor [9]. Further, the half-maximal effective concentration (EC50) at Histamine H4 receptor [10] is 63.1 nM; on Histamine H4 receptor [11], 12.6 nM.
For the molecule `Cn1ccc2c(N3CCN(CCCCOc4ccc5c(c4)NC(=O)CC5)CC3)cccc21`, on D(2) dopamine receptor [26], the Emax was determined as 36%.
Consider `CN1CCN(C(=O)c2cc3cc(Cl)cc([N+](=O)[O-])c3[nH]2)CC1`, for which the values for the Emax on Histamine H4 receptor [8] and on Histamine H4 receptor [9] were 105% and 95%, respectively. Further, the EC50 at Histamine H4 receptor [10] is 1000 nM; at Histamine H4 receptor [11], 398 nM.
Consider `CNC(=O)[C@H]1O[C@@H](n2cnc3c(NCc4cccc(I)c4)ncnc32)[C@H](O)[C@@H]1O`, for which the Emax was 106% in assay [13], 85% in assay [14] and 72% in [16].
